Assay results published in US20230124087A1, “KV3 ENHANCERS FOR THE TREATMENT OF COGNITIVE DISORDERS” (Hoffmann-La Roche Inc., priority 2020, published 2023).

The compounds below were run against T1, Kv3.1 (Homo sapiens, UniProt P48547) (assay: Kv3.1 automated patch clamp (Qube) cellular electrophysiology assay). Conditions: not given.
T1 construct: expressed in transfected cells
T1 sequence (P48547 1-511): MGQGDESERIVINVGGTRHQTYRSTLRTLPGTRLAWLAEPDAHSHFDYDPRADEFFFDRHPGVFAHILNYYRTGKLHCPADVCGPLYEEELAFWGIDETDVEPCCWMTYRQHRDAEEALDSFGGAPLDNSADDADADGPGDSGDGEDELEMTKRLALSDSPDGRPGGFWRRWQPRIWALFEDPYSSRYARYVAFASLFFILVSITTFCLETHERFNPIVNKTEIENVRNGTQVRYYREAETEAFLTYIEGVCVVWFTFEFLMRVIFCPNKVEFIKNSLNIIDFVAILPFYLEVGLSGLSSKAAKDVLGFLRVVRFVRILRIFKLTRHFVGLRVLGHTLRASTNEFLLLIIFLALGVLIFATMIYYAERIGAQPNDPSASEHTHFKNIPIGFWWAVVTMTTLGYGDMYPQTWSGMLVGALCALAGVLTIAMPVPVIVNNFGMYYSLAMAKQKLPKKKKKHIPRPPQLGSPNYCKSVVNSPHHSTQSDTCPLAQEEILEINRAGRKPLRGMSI
Assay type: cell-based
Description: In vitro, high-throughput cellular electrophysiology was employed to detect voltage-dependence of compounds in single concentration screening and IC50 determination for library and medicinal chemistry profiling compounds in 384 well plates.
HEK-293 cell lines stably expressing coding DNA for Kv3.1, 3.2, 3.3, and 3.4 were validated on an automated patch clamp (APC) platform, Qube from Sophion/Denmark. Cell cultures were maintained in DMEM cell growth media containing FBS and appropriate antibiotics at 37° C., 5% CO2 for a maximum of 20 passages. Intra- and extracellular (w. glucose) HEPES buffers containing various monovalent and divalent cations were adjusted to pH 7.2 and 7.4 respectively. Cells were harvested at 75% confluency and resuspended in extracellular buffer and added to wells. Negative pressure was applied to establish whole cell recording by APC.
Currents through activated channels were measured directly by APC by employing depolarization voltage steps. Baseline currents were established for the voltage-dependence protocols using a −80 mV holding potential and multiple test pulses at +10 mV or by 10 mV steps from −80 mV to +40 mV, respectively. Test compounds were added after baseline recordings followed by a 10 min incubation, and voltage-dependency protocol recordings. Data was corrected for baseline and leak currents (well based) and normalized for % potentiation (plate based). Two previously reported Kv3 positive modulators of varying potencies were used for run to run and plate to plate quality controls. A non-selective and potent positive modulator was used as a positive control. Percent potentiation was analyzed at −20 mV of the voltage-dependency protocol and voltage shift in channel activation was analyzed using the voltage step protocol from −80 mV to +40 mV. Selectivity was assessed against Kv3.2, Kv3.3, and Kv3.4 overexpressing cell lines using similar methods.

Row | Structure (SMILES) | EC50 [µM]
1 | O=c1[nH]c2cccnc2n1-c1ccc(Oc2cccc3c2C2(CC2)CO3)nc1 [Example 1, 3-(6-spiro[2H-benzofuran-3,1′-cyclopropane]-4-yloxy-3-pyridyl)-1H-imidazo[4,5-b]pyridin-2-one] | 0.3
2 | COc1cc(Oc2ccc(-n3c(=O)[nH]c4cc(Cl)cnc43)cn2)ccc1C [Example 28, 6-chloro-3-[6-(3-methoxy-4-methyl-phenoxy)-3-pyridyl]-1H-imidazo[4,5-b]pyridin-2-one] | 10
3 | N#Cc1ccc(Oc2ccc(-n3c(=O)[nH]c4cccnc43)cn2)c(C(F)(F)F)c1 [Example 40, 4-[[5-(2-oxo-1H-imidazo[4,5-b]pyridin-3-yl)-2-pyridyl]oxy]-3-(trifluoromethyl)benzonitrile] | 6.6
4 | CC(C)c1cc(Oc2ccc(-n3c(=O)[nH]c4cc(F)cnc43)cn2)ccc1C#N [Example 14, 4-[[5-(6-fluoro-2-oxo-1H-imidazo[4,5-b]pyridin-3-yl)-2-pyridyl]oxy]-2-isopropyl-benzonitrile] | 2.7
5 | COc1cc(Oc2ccc(-n3c(=O)[nH]c4ccccc43)cn2)ccc1C [Example 34, 3-[6-(3-methoxy-4-methyl-phenoxy)-3-pyridyl]-1H-benzimidazol-2-one] | 5.2
6 | Cc1ccc(Oc2ccc(-n3c(=O)[nH]c4cccnc43)cn2)c(F)c1 [Example 36, 3-[6-(2-fluoro-4-methyl-phenoxy)-3-pyridyl]-1H-imidazo[4,5-b]pyridin-2-one] | 4.3
7 | COc1cc(Oc2ccc(-n3c(=O)[nH]c4cc(C(F)(F)F)cnc43)cn2)ccc1C [Example 29, 3-[6-(3-methoxy-4-methyl-phenoxy)-3-pyridyl]-6-(trifluoromethyl)-1H-imidazo[4,5-b]pyridin-2-one] | 5.7
8 | COc1cc(Oc2ccc(-n3c(=O)[nH]c4cccnc43)cn2)ccc1C [Example 33, 3-[6-(3-methoxy-4-methyl-phenoxy)-3-pyridyl]-1H-imidazo[4,5-b]pyridin-2-one] | 3.4
9 | CCc1cc(Oc2ccc(-n3c(=O)[nH]c4cccnc43)cn2)ccc1C#N [Example 49, 2-ethyl-4-[[5-(2-oxo-1H-imidazo[4,5-b]pyridin-3-yl)-2-pyridyl]oxy]benzonitrile] | 4.1
10 | Cc1ccc(Oc2ccc(-n3c(=O)[nH]c4cccnc43)cn2)cc1F [Example 35, 3-[6-(3-fluoro-4-methyl-phenoxy)-3-pyridyl]-1H-imidazo[4,5-b]pyridin-2-one] | 3.6
11 | CC(C)c1cc(Oc2ccc(-n3c(=O)[nH]c4cccnc43)cc2F)ccc1C#N [Example 17, 4-[2-fluoro-4-(2-oxo-1H-imidazo[4,5-b]pyridin-3-yl)phenoxy]-2-isopropyl-benzonitrile] | 4.7
12 | O=c1[nH]c2cccnc2n1-c1ccc(Oc2cccc3c2C2(CC2)CO3)c(F)c1 [Example 8, 3-(3-fluoro-4-spiro[2H-benzofuran-3,1′-cyclopropane]-4-yloxy-phenyl)-1H-imidazo[4,5-b]pyridin-2-one] | 2.3
13 | CC(C)(C)c1cc(C#N)ccc1Oc1ccc(-n2c(=O)[nH]c3cnccc32)cn1 [Example 26, 3-tert-butyl-4-[[5-(2-oxo-3H-imidazo[4,5-c]pyridin-1-yl)-2-pyridyl]oxy]benzonitrile] | 4.7
14 | Cc1ccc(Oc2ccc(-n3c(=O)[nH]c4cnccc43)cn2)cc1Cl [Example 42, 1-[6-(3-chloro-4-methyl-phenoxy)-3-pyridyl]-3H-imidazo[4,5-c]pyridin-2-one] | 10
15 | Cc1cc(C#N)cc(C)c1Oc1ccc(-n2c(=O)[nH]c3cccnc32)cn1 [Example 38, 3,5-dimethyl-4-[[5-(2-oxo-1H-imidazo[4,5-b]pyridin-3-yl)-2-pyridyl]oxy]benzonitrile] | 5.2
16 | Cc1cc(C#N)ccc1Oc1ccc(-n2c(=O)[nH]c3cccnc32)cn1 [Example 37, 3-methyl-4-[[5-(2-oxo-1H-imidazo[4,5-b]pyridin-3-yl)-2-pyridyl]oxy]benzonitrile] | 6

Row | Structure (SMILES) | EC50 [µM]
17 | CC(C)c1cc(Oc2ccc(-n3c(=O)[nH]c4cccnc43)cn2)ccc1C#N [Example 5, 2-isopropyl-4-[[5-(2-oxo-1H-imidazo[4,5-b]pyridin-3-yl)-2-pyridyl]oxy]benzonitrile] | 2.7
18 | O=c1[nH]c2ncccc2n1-c1ccc(Oc2cccc3c2C2(CC2)CO3)nc1 [Example 13, 1-(6-spiro[2H-benzofuran-3,1′-cyclopropane]-4-yloxy-3-pyridyl)-3H-imidazo[4,5-b]pyridin-2-one] | 3.4
19 | COc1cc(Oc2ccc(-n3c(=O)[nH]c4cc(C)cnc43)cn2)ccc1C [Example 9, 3-[6-(3-methoxy-4-methyl-phenoxy)-3-pyridyl]-6-methyl-1H-imidazo[4,5-b]pyridin-2-one] | 2.5
20 | COc1cc(Oc2ccc(-n3c(=O)[nH]c4ccncc43)cn2)ccc1C [Example 31, 3-[6-(3-methoxy-4-methyl-phenoxy)-3-pyridyl]-1H-imidazo[4,5-c]pyridin-2-one] | 21
21 | COc1cc(O[C@H]2C[C@H](n3c(=O)[nH]c4cnccc43)C2)ccc1C [Example 53, 1-[3-(3-methoxy-4-methyl-phenoxy)cyclobutyl]-3H-imidazo[4,5-c]pyridin-2-one] | 3.6
22 | O=c1[nH]c2ccncc2n1-c1ccc(Oc2cccc3c2C2(CC2)CO3)nc1 [Example 12, 3-(6-spiro[2H-benzofuran-3,1′-cyclopropane]-4-yloxy-3-pyridyl)-1H-imidazo[4,5-c]pyridin-2-one] | 3.9
23 | CC(C)(C)c1cc(C#N)ccc1Oc1ccc(-n2c(=O)[nH]c3cc(F)cnc32)cn1 [Example 27, 3-tert-butyl-4-[[5-(6-fluoro-2-oxo-1H-imidazo[4,5-b]pyridin-3-yl)-2-pyridyl]oxy]benzonitrile] | 5.5
24 | COc1cc(C)ccc1Oc1ccc(-n2c(=O)[nH]c3cccnc32)cn1 [Example 39, 3-[6-(2-methoxy-4-methyl-phenoxy)-3-pyridyl]-1H-imidazo[4,5-b]pyridin-2-one] | 5
25 | COc1cc(Oc2ncc(-n3c(=O)[nH]c4cccnc43)cc2C)ccc1C [Example 46, 3-[6-(3-methoxy-4-methyl-phenoxy)-5-methyl-3-pyridyl]-1H-imidazo[4,5-b]pyridin-2-one] | 4
26 | CC(C)c1cc(C#N)ccc1O[C@H]1C[C@H](n2c(=O)[nH]c3cccnc32)C1 [Example 52, 3-isopropyl-4-[3-(2-oxo-1H-imidazo[4,5-b]pyridin-3-yl)cyclobutoxy]benzonitrile] | 17.4
27 | Cc1ccc(Oc2ccc(-n3c(=O)[nH]c4cncnc43)cn2)cc1Cl [Example 50, 9-[6-(3-chloro-4-methyl-phenoxy)-3-pyridyl]-7H-purin-8-one] | 12.2
28 | CCc1cc(Oc2ccc(-n3c(=O)[nH]c4ccccc43)cn2)ccc1C#N [Example 21, 2-ethyl-4-[[5-(2-oxo-3H-benzimidazol-1-yl)-2-pyridyl]oxy]benzonitrile] | 18.5
29 | COc1cc(Oc2ccc(-n3c(=O)[nH]c4cc(F)cnc43)cn2)ccc1C [Example 7, 6-fluoro-3-[6-(3-methoxy-4-methyl-phenoxy)-3-pyridyl]-1H-imidazo[4,5-b]pyridin-2-one] | 2.2
30 | Cc1ccc(Oc2ccc(-n3c(=O)[nH]c4cccnc43)cn2)cc1Cl [Example 3, 3-[6-(3-chloro-4-methyl-phenoxy)-3-pyridyl]-1H-imidazo[4,5-b]pyridin-2-one] | 1.6
31 | CC(C)(C)c1cc(C#N)ccc1Oc1ccc(-n2c(=O)[nH]c3cncnc32)cn1 [Example 24, 3-tert-butyl-4-[[5-(8-oxo-7H-purin-9-yl)-2-pyridyl]oxy]benzonitrile] | 4
32 | COc1cc(Oc2ccc(-n3c(=O)[nH]c4nccnc43)cn2)ccc1C [Example 48, 3-[6-(3-methoxy-4-methyl-phenoxy)-3-pyridyl]-1H-imidazo[4,5-b]pyrazin-2-one] | 3.9

Same assay, conditions: HEK-293 cell line stably expressing Kv3.1; automated patch clamp; 10 min incubation; read-out: EC50 Kv3.1

Row | EC50 [µM] | Structure (SMILES)
33 | 5.9 | Cc1ccc(Oc2ccc(-n3c(=O)[nH]c4cncnc43)cn2)cc1OC(F)(F)F [Example 25, 9-[6-[4-methyl-3-(trifluoromethoxy)phenoxy]-3-pyridyl]-7H-purin-8-one]
34 | 2.4 | Cc1ccc(Oc2ccc(-n3c(=O)[nH]c4cnccc43)cn2)cc1OC(F)(F)F [Example 47, 1-[6-[4-methyl-3-(trifluoromethoxy)phenoxy]-3-pyridyl]-3H-imidazo[4,5-c]pyridin-2-one]
